Source: patent publication US20170224654A1, “PHARMACEUTICAL COMPOSITIONS AND METHODS FOR COUNTERING CHEMOTHERAPY INDUCED CARDIOTOXICITY” (Stem Cell Theranostics, Inc., priority 2016, published 2017)

What was measured:
[1] = target: T1, TOPOIIα (Homo sapiens, UniProt P11388); assay: kDNA decatenation assay; type: biochemical; settings: for TOPOIIα enzymatic inhibition (in words): DHM: even at >200 μM
T1 construct: purchased Inspiralis

[2] = target: T2, TOPOIIβ (Homo sapiens, UniProt Q02880); assay: kDNA decatenation assay; type: biochemical; settings: for TOPOIIβ enzymatic inhibition (in words): DHM: even at >200 μM
T2 construct: purchased Inspiralis

[3] = test system: Human iPSC-derived cardiomyocytes; assay: Cytotoxicity of MYR analogs to cardiomyocytes; settings: for Toxicity: 100 μM
[4] = test system: Doxorubicin treated human iPSC-derived cardiomyocytes; assay: iPSC-CM protection of MYR analogs against doxorubicin; type: cell-based; settings: Homo sapiens, iPSC-CM; initial screen at 10 μM or 100 μM; read-out: iPSC-CM protection Max Effect (%)

T1 sequence (P11388 whole entry): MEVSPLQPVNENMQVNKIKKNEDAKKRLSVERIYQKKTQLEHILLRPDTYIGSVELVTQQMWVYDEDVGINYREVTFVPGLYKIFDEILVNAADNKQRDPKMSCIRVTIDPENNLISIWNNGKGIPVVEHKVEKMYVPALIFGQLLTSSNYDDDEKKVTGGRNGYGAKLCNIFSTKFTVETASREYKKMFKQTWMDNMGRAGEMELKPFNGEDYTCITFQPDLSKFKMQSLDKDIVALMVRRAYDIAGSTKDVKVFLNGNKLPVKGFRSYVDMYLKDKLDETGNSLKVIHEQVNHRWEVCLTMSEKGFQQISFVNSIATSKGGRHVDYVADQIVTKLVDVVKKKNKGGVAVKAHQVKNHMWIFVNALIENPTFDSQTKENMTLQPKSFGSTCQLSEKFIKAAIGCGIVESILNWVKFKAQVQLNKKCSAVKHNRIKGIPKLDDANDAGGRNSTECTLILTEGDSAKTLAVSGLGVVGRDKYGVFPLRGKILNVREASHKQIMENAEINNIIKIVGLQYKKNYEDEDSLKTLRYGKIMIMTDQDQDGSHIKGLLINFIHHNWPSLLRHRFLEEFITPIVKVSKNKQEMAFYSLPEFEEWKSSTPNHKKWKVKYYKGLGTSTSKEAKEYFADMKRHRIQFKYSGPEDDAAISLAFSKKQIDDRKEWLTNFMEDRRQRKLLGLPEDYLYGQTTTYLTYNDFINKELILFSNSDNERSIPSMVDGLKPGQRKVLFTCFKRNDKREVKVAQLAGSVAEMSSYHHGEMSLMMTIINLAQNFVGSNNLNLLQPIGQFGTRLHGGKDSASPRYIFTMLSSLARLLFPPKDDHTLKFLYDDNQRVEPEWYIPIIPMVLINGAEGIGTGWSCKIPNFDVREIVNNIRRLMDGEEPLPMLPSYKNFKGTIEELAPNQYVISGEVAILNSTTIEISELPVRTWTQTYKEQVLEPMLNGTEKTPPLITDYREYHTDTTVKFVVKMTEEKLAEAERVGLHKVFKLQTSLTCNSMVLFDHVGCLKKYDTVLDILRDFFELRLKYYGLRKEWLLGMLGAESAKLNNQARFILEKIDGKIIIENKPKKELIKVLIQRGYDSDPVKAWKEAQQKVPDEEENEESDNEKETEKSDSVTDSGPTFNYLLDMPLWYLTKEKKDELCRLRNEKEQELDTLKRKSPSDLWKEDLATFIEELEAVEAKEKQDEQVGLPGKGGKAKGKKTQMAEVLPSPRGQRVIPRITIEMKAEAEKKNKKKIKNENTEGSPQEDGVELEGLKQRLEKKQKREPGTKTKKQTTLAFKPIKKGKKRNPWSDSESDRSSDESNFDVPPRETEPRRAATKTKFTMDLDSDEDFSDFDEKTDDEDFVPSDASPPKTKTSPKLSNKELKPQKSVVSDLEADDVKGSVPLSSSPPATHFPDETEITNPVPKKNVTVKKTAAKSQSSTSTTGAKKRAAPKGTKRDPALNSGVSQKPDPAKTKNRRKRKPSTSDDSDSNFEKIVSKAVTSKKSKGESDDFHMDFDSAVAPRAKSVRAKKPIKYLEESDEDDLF
T2 sequence (Q02880 whole entry): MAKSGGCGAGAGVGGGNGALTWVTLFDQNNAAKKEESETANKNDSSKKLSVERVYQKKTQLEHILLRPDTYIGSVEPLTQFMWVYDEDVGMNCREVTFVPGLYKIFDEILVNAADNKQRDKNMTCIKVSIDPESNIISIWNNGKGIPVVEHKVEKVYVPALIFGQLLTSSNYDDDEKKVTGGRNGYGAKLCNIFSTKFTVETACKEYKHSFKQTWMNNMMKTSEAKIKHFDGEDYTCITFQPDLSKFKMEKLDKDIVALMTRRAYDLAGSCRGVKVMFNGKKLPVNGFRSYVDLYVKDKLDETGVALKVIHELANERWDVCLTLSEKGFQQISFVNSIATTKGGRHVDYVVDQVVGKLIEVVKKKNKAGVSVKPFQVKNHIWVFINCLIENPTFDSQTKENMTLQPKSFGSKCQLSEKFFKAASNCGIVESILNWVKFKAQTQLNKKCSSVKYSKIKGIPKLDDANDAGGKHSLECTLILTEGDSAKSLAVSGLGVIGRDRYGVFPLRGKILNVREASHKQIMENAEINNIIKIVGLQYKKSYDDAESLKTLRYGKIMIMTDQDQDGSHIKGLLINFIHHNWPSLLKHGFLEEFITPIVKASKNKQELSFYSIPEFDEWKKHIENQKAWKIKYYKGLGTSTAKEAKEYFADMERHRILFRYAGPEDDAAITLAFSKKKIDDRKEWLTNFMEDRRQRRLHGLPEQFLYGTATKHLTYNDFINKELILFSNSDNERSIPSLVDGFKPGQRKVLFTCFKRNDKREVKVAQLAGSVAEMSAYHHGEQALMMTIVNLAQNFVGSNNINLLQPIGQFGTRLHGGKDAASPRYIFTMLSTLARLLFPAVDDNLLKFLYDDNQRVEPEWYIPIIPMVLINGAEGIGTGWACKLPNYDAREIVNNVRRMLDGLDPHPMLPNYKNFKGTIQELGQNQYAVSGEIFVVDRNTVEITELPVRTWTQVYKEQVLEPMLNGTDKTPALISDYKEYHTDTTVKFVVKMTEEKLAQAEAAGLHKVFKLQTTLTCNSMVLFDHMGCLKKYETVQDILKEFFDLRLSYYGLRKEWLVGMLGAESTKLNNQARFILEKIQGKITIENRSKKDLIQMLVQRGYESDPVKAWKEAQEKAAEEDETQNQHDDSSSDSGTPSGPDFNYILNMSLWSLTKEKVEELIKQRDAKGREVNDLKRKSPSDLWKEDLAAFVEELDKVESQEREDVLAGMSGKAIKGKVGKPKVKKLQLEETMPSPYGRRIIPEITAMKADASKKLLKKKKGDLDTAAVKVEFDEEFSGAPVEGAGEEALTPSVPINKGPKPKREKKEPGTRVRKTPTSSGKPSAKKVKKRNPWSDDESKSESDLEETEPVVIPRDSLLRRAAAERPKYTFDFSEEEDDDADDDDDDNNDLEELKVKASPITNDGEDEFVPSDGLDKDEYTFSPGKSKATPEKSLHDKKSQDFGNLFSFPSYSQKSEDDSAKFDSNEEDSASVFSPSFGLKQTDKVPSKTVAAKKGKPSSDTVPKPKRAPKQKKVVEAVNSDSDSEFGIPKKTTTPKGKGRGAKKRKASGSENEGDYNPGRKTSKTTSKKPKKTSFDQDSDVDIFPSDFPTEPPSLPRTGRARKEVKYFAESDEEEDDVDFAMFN

O=c1c(O)c(-c2ccc(O)c(O)c2)oc2ccccc12 [Compound 12, 3,3′,4′-trihydroxyflavone]
TOPOIIα Inhibition [1]: − | TOPOIIβ Inhibition [2]: −

O=c1c(O)c(-c2cc(O)c(O)c(O)c2)oc2cc(O)ccc12 [Compound 2, 3,7,3′,4′,5′-pentahydroxyflavone]
TOPOIIα enzymatic inhibition (in words) [1]: high level of inhibition | Toxicity [3]: − | TOPOIIβ enzymatic inhibition (in words) [2]: high level of inhibition

O=c1ccoc2cc(O)ccc12 [Compound 38, 7-hydroxy-4-chromone]
TOPOIIα Inhibition [1]: − | TOPOIIβ Inhibition [2]: −

O=C1c2c(O)cc(O)cc2O[C@H](c2cc(O)c(O)c(O)c2)[C@H]1O [dihydromyricetin]
TOPOIIα enzymatic inhibition (in words) [1]: did not inhibit | TOPOIIβ enzymatic inhibition (in words) [2]: did not inhibit

COc1c(O)cc(-c2oc3cc(O)cc(O)c3c(=O)c2O)cc1O [Compound 32, 4′-O-methylmyricetin]
TOPOIIα Inhibition [1]: − | TOPOIIβ Inhibition [2]: −

COc1cc(-c2oc3cc(O)cc(O)c3c(=O)c2O)cc(O)c1O [Compound 31, 3′-O-methylmyricetin]
TOPOIIα Inhibition [1]: − | TOPOIIβ Inhibition [2]: −

COc1cc(-c2oc3cc(O)ccc3c(=O)c2O)cc(OC)c1OC [Compound 35, 3′,4′,5′-O-trimethylrobinetin]
TOPOIIα Inhibition [1]: − | TOPOIIβ Inhibition [2]: −

O=c1cc(-c2cc(O)c(O)c(O)c2)oc2ccccc12 [Compound 8, 3′,4′,5′-trihydroxyflavone]
TOPOIIα Inhibition [1]: − | Toxicity [3]: − | TOPOIIβ Inhibition [2]: −

O=c1c(O)c(-c2ccc(O)cc2)oc2cc(O)ccc12 [Compound 10, 3,7,4′-trihydroxyflavone]
TOPOIIα Inhibition [1]: − | cytotoxicity / toxic effects to cardiomyocytes (in words) ([3]; at or below 100 μM as stated): exhibited toxic effects at concentrations below 100 μM | TOPOIIβ Inhibition [2]: −

COc1cc(-c2oc3cc(O)cc(O)c3c(=O)c2O)cc(OC)c1O [Compound 33, 3′,5′-O-dimethylmyricetin]
TOPOIIα Inhibition [1]: − | TOPOIIβ Inhibition [2]: −

O=c1cc(-c2ccc(O)c(O)c2)oc2cc(O)ccc12 [Compound 11, 7,3′,4′-trihydroxyflavone]
TOPOIIα Inhibition [1]: − | TOPOIIβ Inhibition [2]: −

COc1ccc2c(=O)c(O)c(-c3cc(OC)c(OC)c(OC)c3)oc2c1 [Compound 36, 7,3′,4′,5′-O-tetramethylrobinetin]
TOPOIIα Inhibition [1]: − | TOPOIIβ Inhibition [2]: −

COc1ccc2c(=O)c(OC)c(-c3cc(OC)c(OC)c(OC)c3)oc2c1 [Compound 37, 3,7,3′,4′,5′-O-pentamethylrobinetin]
TOPOIIα Inhibition [1]: − | TOPOIIβ Inhibition [2]: −

COc1cc(-c2oc3cc(O)cc(O)c3c(=O)c2O)cc(OC)c1OC [Compound 34, 3′,4′,5′-O-trimethylmyricetin]
TOPOIIα Inhibition [1]: − | TOPOIIβ Inhibition [2]: −

O=c1cc(-c2ccc(O)c(O)c2)oc2cc(O)cc(O)c12 [Compound 9, 5,7,3′,4′-tetrahydroxyflavone]
TOPOIIα Inhibition [1]: − | TOPOIIβ Inhibition [2]: −

O=c1cc(-c2ccc(O)cc2)oc2ccccc12 [Compound 17, 4′-hydroxyflavone]
Emax [4]: < 30% | Toxicity [3]: −

O=C1c2ccc(O)cc2OC(c2cc(O)c(O)c(O)c2)C1O (stereo in doubt) [Compound 30, dihydrorobinetin]
TOPOIIα Inhibition [1]: − | TOPOIIα enzymatic inhibition (in words) [1]: no inhibitory activity | TOPOIIβ Inhibition [2]: − | TOPOIIβ enzymatic inhibition (in words) [2]: no inhibitory activity

O=c1cc(-c2cc(O)c(O)c(O)c2)oc2cc(O)ccc12 [Compound 6, 7,3′,4′,5′-tetrahydroxyflavone]
TOPOIIα Inhibition [1]: − | Toxicity [3]: − | TOPOIIβ Inhibition [2]: −

O=c1ccoc2ccccc12 [Compound 29, chromone]
Toxicity [3]: −
